The values below come from patent US6800762B2, “Indolin derivaties as sun protection agents” (Ciba Specialty Chemicals Corporation, priority 1998, dated 2004).

A short description of one data set: photostability. The data set is classed as physicochemical. The note with it: read-out: photostability t1/2 (converted).
The nature of data set [1]: UV absorption: molar extinction coefficient at λmax. The data set is classed as physicochemical.
Source text: ε=62081 in ethanol l/(mol/cm) at λmax=434 nm, elemental analysis for C24H32N2O2[%]:

In the case of `CN1/C(=C\C=O)C(C)(C)c2ccccc21` [Example 1, 2-(1,3,3-trimethyl-indolin-2-ylene) acetaldehyde], in “photostability”, the half-life was 208 h. Besides, the ε in data set [1] (in ethanol at λmax) is recorded as 34520 l/(mol/cm).

`CCCCC(CC)COC(=O)/C(C#N)=C/C=C1\N(C)c2ccccc2C1(C)C` (stereo not drawn) [Example 2] gave a λmax in data set [1] (in ethanol) of 434 nm. In data set [1] (in ethanol at λmax), the ε is listed as 62081 l/(mol/cm).

`CN1/C(=C/C(=O)c2ccccc2)C(C)(C)c2ccccc21` [Example 3] displayed a λmax in data set [1] (in dioxane) of 377 nm. For the same compound, in data set [1] (in dioxane at λmax), the ε is 29427 l/(mol/cm).
